The values below come from PMC9889269, “Synthetic anaplerotic modules for the direct synthesis of complex molecules from CO2” (Nature Chemical Biology, 2022).

The assay deals with T1, Aat (acetyl-CoA acetyltransferase) (Cupriavidus necator, UniProt P14611).
T1 construct: gene phaA; recombinant from E. coli BL21(DE3), Ni-NTA purified, desalted
T1 sequence (P14611 1-393): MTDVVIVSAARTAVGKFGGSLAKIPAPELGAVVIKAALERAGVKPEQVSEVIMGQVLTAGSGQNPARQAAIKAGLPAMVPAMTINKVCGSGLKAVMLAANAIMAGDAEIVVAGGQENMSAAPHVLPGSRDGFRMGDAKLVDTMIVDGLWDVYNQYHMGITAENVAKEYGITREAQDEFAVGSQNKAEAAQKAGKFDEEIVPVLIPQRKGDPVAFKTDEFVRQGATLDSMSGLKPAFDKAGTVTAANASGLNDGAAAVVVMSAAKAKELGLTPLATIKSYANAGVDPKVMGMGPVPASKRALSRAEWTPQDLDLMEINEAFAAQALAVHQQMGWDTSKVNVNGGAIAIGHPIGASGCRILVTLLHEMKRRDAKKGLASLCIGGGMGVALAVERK
Put plainly: LC-MS of condensation products, with Aar and Bbd. As to conditions: acetyl-CoA and propionyl-CoA together. It is filed as biochemical.

For `CC(=O)SCCNC(=O)CCNC(=O)[C@H](O)C(C)(C)COP(=O)(O)OP(=O)(O)OC[C@H]1O[C@@H](n2cnc3c(N)ncnc32)[C@H](O)[C@@H]1OP(=O)(O)O` [acetyl-CoA], the “LC-MS of condensation products, with Aar and Bbd” value is “Promiscuity of Aat assayed with acetyl-CoA and propionyl-CoA”.

For `CCC(=O)SCCNC(=O)CCNC(=O)[C@H](O)C(C)(C)COP(=O)(O)OP(=O)(O)OC[C@H]1O[C@@H](n2cnc3c(N)ncnc32)[C@H](O)[C@@H]1OP(=O)(O)O` [propionyl-CoA], the “LC-MS of condensation products, with Aar and Bbd” value (condensed with acetyl-CoA, not with itself) is “All products for acetyl- and propionyl-CoA combinations were detectable”.
